Laboratory results reported in patent publication US4487770A, “Treatment of diseases of the liver, kidney, colon and rectum” (Nippon Shinyaku Co., Ltd., priority 1981, dated 1984).
Like-named read-outs stand apart in the source and are kept apart here.

Experiments:
[1] = test system: guinea pigs having colitis caused by amylopectine sulfate; experiment: Effect on colitis induced by administration of amylopectine sulfate (APS); type: in vivo, guinea pig (Hartley strain); conditions: 2 weeks; for Symptom: Colitis Incidence: saline group 100%; for Symptom: Area of Ulcer: saline group 120 ± 24
Method: Effect on colitis induced by administration of amylopectine sulfate (according to the method reported in J. Gastroenterology, 67, 473-483, 1974 by Marcus, R and Watt)
Sixty male guinea pigs of Hartley strain (body weight: 200 grams) were used. Among them, fifty guinea pigs were given tap water containing 1% amylopectine sulfate ("APS") as drinking water and were bred for four weeks. (APS contains about 15% sulfur.)
The animals in these five groups were administered 1 ml/kg/day of physiological saline solution and 5, 10, 25 and 50 mg/kg/day of compound I for two weeks by oral route. The other ten guinea pigs were untreated controls and were given untreated tap water as drinking water and were bred for four weeks under the same circumstances as those of the experimental groups.
After two weeks, the animals were killed by overinhalation of ether, the large intestines were removed and the degree of colitis was determined by observing the incidence of ulcers and the area of ulcers with a stereoscopic microscope (×10). The results are given in Table 1, and the changes in body weight during the administration of the compound I is given in the drawing.

intestinal bacteria = experiment: action on intestinal bacteria, standard test by Japan Antibiotic Association
Excerpt: As a mechanism for the resulting colitis by administration of APS, the physico-chemical properties of APS must be involved. […] Therefore, there is no contribution of antibacterial activity in the effect of compound I against colitis. In view of the above, it is clear that the effect of the compound I against colitis is due to the direct protection of large intestinal mucosal cells by compound I.

[2] = test system: hepatic and renal disorders induced by carbon tetrachloride in rats; experiment: Effect on hepatic and renal disorders induced by administration of carbon tetrachloride; type: in vivo, rat (Sprague-Dawley strain); conditions: after CCl4; for Body Weight: average ± S.E., n=10; for Liver Wt.: saline 10.5 ± 1.9; for BUN: saline 56.6 ± 10.6; for GPT: saline 2206 ± 298; for LDH: saline 22425 ± 9211
Method: Effect on hepatic and renal disorders induced by administration of carbon tetrachloride
Five groups of male rats of Sprague-Dawley strain (body weight: 200 grams) were used (ten rats per group). All of these rats were given 4 ml/kg of 50% carbon tetrachloride (used with olive oil) by oral route. After 24 hours, the rats were killed by decapitation, and blood was taken and the liver was isolated therefrom. Previously, the rats were fasted for 18 hours before taking blood therefrom. The blood was subjected to quantitative determination of GOT, GPT, LDH and BUN and the weights of isolated livers were measured.
Compound I was given to the rats of four groups, two to six hours after the administration of carbon tetrachloride (in other words, at the time when hepatic and renal disorders caused by carbon tetrachloride had already appeared) at the dose of 5, 10, 25 or 50 mg/kg by oral route. Physiological saline in an amount of 1 ml/kg/day to the rats of the fifth group. Rats of a sixth group that received no carbon tetrachloride, served as a control, and were also autospied, as above.

erythrocytic membrane = experiment: Enhancement of resistance of erythrocytic membrane (hypoosmotic hemolysis); type: cell-based, rat (Sprague-Dawley strain); conditions: for inhibition at 770 µM / hemolysis at 770 µM: Rattus norvegicus, Erythrocyte, 0.5 h; for inhibition at 770 µM: read-out: Percent Inhibition Ratio (hemolysis); for hemolysis at 770 µM: average of five ± S.E., p < 0.05
Method: Enhancement of resistance of erythrocytic membrane
Sprague-Dawley strain rats were treated with heparine and blood samples were obtained therefrom. The blood was centrifuged at 3000 rpm for ten minutes to remove blood plasma and then washed with 10 mM phosphate buffer-physiological saline solution (pH 7) to wash erythrocyte. To each volume of blood required to obtain the erythrocyte, 19 volumes of hypoosmotic solution (containing 10 mM phosphate buffer) was added and an erythrocyte suspension (5% erythrocyte suspension) was prepared. With reference to hemolysis, the absorbancy (O.D.) at 540 nm using distilled water as the hypoosmotic solution so that completely hemolyzed was defined as "100% hemolysis".
An erythrocyte suspension with 0.4%/0.45% hypoosmotic saline solution was incubated at 37° C. for 30 minutes, centrifuged at 3000 rpm for 10 minutes, and the percent hemolysis was calculated from the O.D. of the supernatant liquid.

[3] = Acute toxicity test in mice; type: in vivo; conditions: mouse, in vivo, read-out: LD50 (95% fiducial limits)
Excerpt: (§1) The LD50 values of compound I in ddY strain mice (6 weeks of age) and in Sprague-Dawley strain rats (7 weeks of age) are given in Table 4.

ddY strain mice = experiment: Acute toxicity test in mice; type: in vivo; conditions: mice and rats
Excerpt: as §1

[4] = Acute toxicity test in rats; conditions: rat, in vivo, read-out: LD50 (95% fiducial limits)
Excerpt: as §1

solubility in water = type: physicochemical

In the case of `Nc1nc(N)nc(-c2cc(Cl)ccc2Cl)n1.O=C(O)/C=C\C(=O)O` [Compound I, 2,4-diamino-6-(2', 5'-dichlorophenyl)-s-triazine maleate], the “Average Intake of APS, after administration of Compound I” value (from here on “Average Intake of APS”) ([1]; 5 mg/kg/day oral) is reported as 0.91 g/kg/2w, the “Increase in Body Weight (2-4 wks)” value ([1]; 5 mg/kg/day oral, saline group 2 ± 10, control 110 ± 11) is reported as 11 ± 12 g and the “Symptom: Colitis Incidence” value ([1]; 5 mg/kg/day oral) is reported as 90%. The “Symptom: Area of Ulcer” value ([1]; 5 mg/kg/day oral) was 65 ± 20 mm^2, the “Average Intake of APS” value ([1]; 10 mg/kg/day oral) was 1.12 g/kg/2w and the “Increase in Body Weight (2-4 wks)” value ([1]; 10 mg/kg/day oral, saline group 2 ± 10, control 110 ± 11) was 26 ± 15 g. The “Symptom: Colitis Incidence” value ([1]; 10 mg/kg/day oral) was 80%, the “Symptom: Area of Ulcer” value ([1]; 10 mg/kg/day oral) was 50 ± 24 mm^2 and the “Average Intake of APS” value ([1]; 25 mg/kg/day oral) was 1.26 g/kg/2w. For the same compound, the “Increase in Body Weight (2-4 wks)” value ([1]; 25 mg/kg/day oral, saline group 2 ± 10, p < 0.05) was 36 ± 13 g, the “Symptom: Colitis Incidence” value ([1]; 25 mg/kg/day oral) was 60% and the “Symptom: Area of Ulcer” value ([1]; 25 mg/kg/day oral, p < 0.05) was 43 ± 15 mm^2. The “Average Intake of APS” value ([1]; 50 mg/kg/day oral) was 1.24 g/kg/2w, the “Increase in Body Weight (2-4 wks)” value ([1]; 50 mg/kg/day oral, saline group 2 ± 10, p < 0.05) was 54 ± 10 g and the “Symptom: Colitis Incidence” value ([1]; 50 mg/kg/day oral) was 60%. For the same compound, the “Symptom: Area of Ulcer” value ([1]; 50 mg/kg/day oral, p < 0.05) was 34 ± 12 mm^2, the “effect on body weight of afflicted animals (in words, drawing)” value ([1]; oral) was “greatly increases the body weight of the afflicted animals” and the “effect on colitis (in words)” value ([1]; oral) was “improvement in the colitis followed by increase in body weight was observed”. For the same compound, the “intake of APS (in words)” value ([1]; oral) was “the intake of APS did not decrease, but rather increased”, the “action on intestinal bacteria” value (intestinal bacteria) was “does not exhibit any action on intestinal bacteria” and the “Body Weight” value ([2]; 5 mg/kg oral) was 198.6 ± 0.5 g. The “Liver Wt.” value ([2]; 5 mg/kg oral) was 9.6 ± 2.2 g, the BUN ([2]; 5 mg/kg oral) was 42.0 ± 9.8 mg/dL and the GPT ([2]; 5 mg/kg oral) was 1920 ± 306 Karmen Unit. For the same compound, the LDH ([2]; 5 mg/kg oral) was 16341 ± 9009 Wroblewski Unit, the GOT ([2]; 5 mg/kg oral, saline printed 3,91 ± 361) was 2215 ± 250 Karmen Unit and the “Body Weight” value ([2]; 10 mg/kg oral) was 199.1 ± 0.7 g. For the same compound, the GOT ([2]; 10 mg/kg oral, p < 0.05 vs saline) was 1822 ± 249 Karmen Unit, the “Liver Wt.” value ([2]; 10 mg/kg oral) was 9.5 ± 2.5 g and the BUN ([2]; 10 mg/kg oral) was 34.6 ± 7.2 mg/dL. For the same compound, the GPT ([2]; 10 mg/kg oral) was 1566 ± 354 Karmen Unit, the LDH ([2]; 10 mg/kg oral) was 12209 ± 6214 Wroblewski Unit and the “Body Weight” value ([2]; 25 mg/kg oral) was 200.6 ± 0.6 g. For the same compound, the “Liver Wt.” value ([2]; 25 mg/kg oral) was 8.3 ± 1.5 g, the BUN ([2]; 25 mg/kg oral) was 31.4 ± 8.8 mg/dL and the GPT ([2]; 25 mg/kg oral, p < 0.05) was 1012 ± 261 Karmen Unit. The LDH ([2]; 25 mg/kg oral) was 8054 ± 3666 Wroblewski Unit, the “Body Weight” value ([2]; 50 mg/kg oral) was 198.6 ± 0.8 g and the GOT ([2]; 50 mg/kg oral, p < 0.05 vs saline) was 1339 ± 211 Karmen Unit. For the same compound, the “Liver Wt.” value ([2]; 50 mg/kg oral) was 7.4 ± 2.0 g, the BUN ([2]; 50 mg/kg oral, p < 0.05) was 29.7 ± 3.5 mg/dL and the GPT ([2]; 50 mg/kg oral, p < 0.05) was 805 ± 134 Karmen Unit. The LDH ([2]; 50 mg/kg oral, p < 0.05) was 5003 ± 1642 Wroblewski Unit, the “effect on increase of BUN (in words)” value ([2]; oral) was “inhibited the increase of BUN” and the “effect on liver weight, GOT, GPT and LDH (in words)” value ([2]; oral) was “depressed the increase of liver weight and the increase in GOT, GPT, and LDH”. The “inhibition of hemolysis (in words)” value (erythrocytic membrane; 0.77 mM, 0.4 and 0.45% saline) was “shows inhibition of hemolysis”, the “protective action to erythrocyte membranes (in words)” value (erythrocytic membrane; 0.77 mM, 0.4 and 0.45% saline) was “exhibits protective action to erythrocyte membranes” and the inhibition at 770 µM (erythrocytic membrane; 0.77 mM, 0.4% saline solution) was 35.5%. It also gave an inhibition at 770 µM (erythrocytic membrane; 0.77 mM, 0.45% saline solution) of 62.2%, a hemolysis at 770 µM (erythrocytic membrane; read-out: Percent Hemolysis Ratio, 0.77 mM, 0.4% saline solution, control 70.8 ± 0.6) of 45.7 ± 1.8% and a hemolysis at 770 µM (erythrocytic membrane; read-out: Percent Hemolysis Ratio, 0.77 mM, 0.45% saline solution, control 27.5 ± 2.1) of 10.4 ± 1.1%. It also gave an LD50 ([3]; ip, mice female, intraperitoneal) of 1010 mg/kg, an LD50 ([3]; ip, mice male, intraperitoneal) of 775 mg/kg and an LD50 ([3]; po, mice female, oral) of 5700 mg/kg. For the same compound, the LD50 ([3]; po, mice male, oral) was 6040 mg/kg, the LD50 ([3]; sc, mice female, subcutaneous) was 3220 mg/kg and the LD50 ([3]; sc, mice male, subcutaneous) was 2840 mg/kg. The “safety (LD50 compared with effective dose, in words)” value (ddY strain mice) was “highly safe”, the LD50 ([4]; ip, rats female, intraperitoneal) was 789 mg/kg and the LD50 ([4]; ip, rats male, intraperitoneal) was 802 mg/kg. For the same compound, the LD50 ([4]; po, rats female, oral) was 2920 mg/kg, the LD50 ([4]; po, rats male, oral) was 2900 mg/kg and the LD50 ([4]; sc, rats female, subcutaneous) was 1520 mg/kg. For the same compound, the LD50 ([4]; sc, rats male, subcutaneous) was 1600 mg/kg, the solubility at 0.5 h (solubility in water; saturated solution in water) was 770 µM and the “solubility in water (in words)” value (solubility in water; water) was “hardly soluble in water”.
